Source: patent US20250195521A1 (Revolution Medicines, Inc., priority 2020, published 2025)

Experiments:
[1] = system: NCI-H358 cells (K-Ras G12C); assay: CellTiter-Glo cell viability, NCI-H358; assay type: cell-based, human; settings: Homo sapiens, NCI-H358, 120 h, K-Ras G12C, 5-day treatment; read-out: H358 Cell Viability IC50
Outline: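 Cells seeded, compound dispensed straight into wells, 5-day exposure. Plates brought to room temperature ~30 min, CellTiter-Glo luminescence measured. Normalized to DMSO (%), 4-parameter logistic fit.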

[2] = system: NCI-H358 (K-Ras G12C); assay: CellTiter-Glo cell viability assay, NCI-H358; assay type: cell-based, human; settings: Homo sapiens, NCI-H358, 120 h, 5-day treatment; read-out: H358 Cell Viability assay data (K-Ras G12C, IC50)
Outline: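 Cells seeded, compound added directly to plates; day 5: plates to RT ~30 min, CellTiter-Glo luminescence; (sample/avg DMSO)*100; 4-parameter fit.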

[3] = target: NRAS Q61K (Homo sapiens (Human), UniProt P01111+P62937, Q61K); assay: Ras-Raf disruption/FRET/MOA assay (BRAF RBD, Cyclophilin A); assay type: biochemical
Sequence of NRAS Q61K (P01111 whole entry Q61K): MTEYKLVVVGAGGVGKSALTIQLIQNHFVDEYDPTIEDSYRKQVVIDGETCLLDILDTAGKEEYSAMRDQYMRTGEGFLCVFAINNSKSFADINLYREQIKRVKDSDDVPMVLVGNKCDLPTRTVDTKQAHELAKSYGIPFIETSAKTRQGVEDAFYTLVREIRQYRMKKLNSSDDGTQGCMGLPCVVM
Sequence of NRAS Q61K (P62937 whole entry): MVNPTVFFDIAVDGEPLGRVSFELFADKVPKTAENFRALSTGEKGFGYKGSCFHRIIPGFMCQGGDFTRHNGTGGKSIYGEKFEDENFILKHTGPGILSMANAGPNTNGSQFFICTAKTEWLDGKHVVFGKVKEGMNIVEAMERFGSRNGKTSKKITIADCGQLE
Outline: (§1)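 First, 25 μM Cyclophilin A, 12.5 nM His6-Ras-GMPPNP and 50 nM GST-BRAF RBD are mixed with diluted compound at pH 7.3. Next, 3 h at 25° C. Then 10 nM anti-His Eu-W1024 plus 50 nM anti-GST allophycocyanin for 1.5 h before TR-FRET reading.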

[4] = target: KRAS G13C (Homo sapiens (Human), UniProt P01116+P62937, G13C); assay: as above; assay type: biochemical; settings: read-out: KRAS G13C FRET IC50
Sequence of KRAS G13C (P01116 other isoform, or with tags, fused parts or gaps G13C): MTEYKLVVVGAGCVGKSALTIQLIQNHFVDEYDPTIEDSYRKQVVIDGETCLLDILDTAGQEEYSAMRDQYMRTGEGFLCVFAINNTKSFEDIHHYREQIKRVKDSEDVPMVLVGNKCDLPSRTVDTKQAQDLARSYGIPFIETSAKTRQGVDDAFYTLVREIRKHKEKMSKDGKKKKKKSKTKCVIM
Sequence of KRAS G13C (P62937 whole entry): as the sequence (P62937 whole entry) above
Outline: (§2)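 TR-FRET read after 1.5 h with 10 nM anti-His Eu-W1024 and 50 nM anti-GST APC, following 3 h at 25 °C of GMPPNP-loaded His6-Ras (12.5 nM), GST-BRAF RBD (50 nM) and Cyclophilin A (25 μM) with compound from 30 μM final, 10 points, 3-fold. IC50 reported; pH 7.3 HEPES, 100 mM NaCl.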

[5] = target: NRAS G12C (Homo sapiens (Human), UniProt P01111+P62937, G12C); assay: as above; assay type: biochemical; settings: read-out: NRAS G12C FRET data IC50
Sequence of NRAS G12C (P01111 whole entry G12C): as the sequence (P01111 whole entry Q61K) above, with G12C, K61Q counted along it
Sequence of NRAS G12C (P62937 whole entry): as the sequence (P62937 whole entry) above
Outline: as §1

[6] = target: KRAS Q61H (Homo sapiens (Human), UniProt P01116+P62937, Q61H); assay: as above; assay type: biochemical
Sequence of KRAS Q61H (P01116 other isoform, or with tags, fused parts or gaps Q61H): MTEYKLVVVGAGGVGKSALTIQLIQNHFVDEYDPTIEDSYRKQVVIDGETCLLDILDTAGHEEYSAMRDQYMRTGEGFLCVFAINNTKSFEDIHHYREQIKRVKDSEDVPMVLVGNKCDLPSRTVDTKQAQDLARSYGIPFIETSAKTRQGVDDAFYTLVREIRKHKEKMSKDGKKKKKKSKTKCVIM
Sequence of KRAS Q61H (P62937 whole entry): as the sequence (P62937 whole entry) above
Outline: as §2

[7] = target: NRAS Q61R (Homo sapiens (Human), UniProt P01111+P62937, Q61R); assay: as above; assay type: biochemical
Sequence of NRAS Q61R (P01111 whole entry Q61R): as the sequence (P01111 whole entry Q61K) above, with K61R counted along it
Sequence of NRAS Q61R (P62937 whole entry): as the sequence (P62937 whole entry) above
Outline: as §1

[8] = target: KRAS WT (Homo sapiens (Human), UniProt P01116+P62937); assay: as above; assay type: biochemical; settings: read-out: KRAS WT FRET data IC50
Sequence of KRAS WT (P01116 other isoform, or with tags, fused parts or gaps): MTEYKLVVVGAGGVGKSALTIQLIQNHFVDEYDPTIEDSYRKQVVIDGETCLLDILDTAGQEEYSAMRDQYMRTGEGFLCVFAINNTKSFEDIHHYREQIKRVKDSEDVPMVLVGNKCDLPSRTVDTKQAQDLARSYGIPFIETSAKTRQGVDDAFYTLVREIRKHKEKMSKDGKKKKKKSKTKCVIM
Sequence of KRAS WT (P62937 whole entry): as the sequence (P62937 whole entry) above
Outline: as §2

[9] = target: KRAS G12C (Homo sapiens (Human), UniProt P01116+P62937, G12C); assay: as above; assay type: biochemical; settings: read-out: KRAS G12C FRET IC50
Sequence of KRAS G12C (P01116-2 other isoform, or with tags, fused parts or gaps G12C): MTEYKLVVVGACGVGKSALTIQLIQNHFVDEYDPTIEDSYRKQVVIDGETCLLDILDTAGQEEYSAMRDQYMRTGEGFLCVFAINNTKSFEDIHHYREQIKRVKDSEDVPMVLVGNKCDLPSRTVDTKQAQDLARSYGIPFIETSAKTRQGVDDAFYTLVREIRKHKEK
Sequence of KRAS G12C (P62937 whole entry): as the sequence (P62937 whole entry) above
Outline: as §2

[10] = target: KRAS G12V (Homo sapiens (Human), UniProt P01116+P62937, G12V); assay: as above; assay type: biochemical; settings: read-out: KRAS G12V FRET IC50
Sequence of KRAS G12V (P01116 other isoform, or with tags, fused parts or gaps G12V): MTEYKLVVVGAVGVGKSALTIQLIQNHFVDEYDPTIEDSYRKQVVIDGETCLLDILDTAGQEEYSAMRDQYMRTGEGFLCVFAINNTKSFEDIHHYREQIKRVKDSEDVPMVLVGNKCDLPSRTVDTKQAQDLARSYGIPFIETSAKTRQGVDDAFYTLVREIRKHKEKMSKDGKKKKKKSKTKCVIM
Sequence of KRAS G12V (P62937 whole entry): as the sequence (P62937 whole entry) above
Outline: as §2

[11] = target: KRAS G12D (Homo sapiens (Human), UniProt P01116+P62937, G12D); assay: as above; assay type: biochemical; settings: read-out: KRAS G12D FRET IC50
Sequence of KRAS G12D (P01116 other isoform, or with tags, fused parts or gaps G12D): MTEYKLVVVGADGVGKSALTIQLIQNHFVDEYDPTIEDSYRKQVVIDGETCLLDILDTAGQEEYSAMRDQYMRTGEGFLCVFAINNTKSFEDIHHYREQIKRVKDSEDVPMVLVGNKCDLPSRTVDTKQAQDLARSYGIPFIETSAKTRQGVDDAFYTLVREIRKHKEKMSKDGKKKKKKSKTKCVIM
Sequence of KRAS G12D (P62937 whole entry): as the sequence (P62937 whole entry) above
Outline: as §2

[12] = target: NRAS WT (Homo sapiens (Human), UniProt P01111+P62937); assay: as above; assay type: biochemical
Sequence of NRAS WT (P01111 whole entry): as the sequence (P01111 whole entry Q61K) above, with K61Q counted along it
Sequence of NRAS WT (P62937 whole entry): as the sequence (P62937 whole entry) above
Outline: as §1

[13] = target: KRAS G13D (Homo sapiens (Human), UniProt P01116+P62937, G13D); assay: as above; assay type: biochemical; settings: read-out: KRAS G13D FRET data IC50
Sequence of KRAS G13D (P01116 other isoform, or with tags, fused parts or gaps G13D): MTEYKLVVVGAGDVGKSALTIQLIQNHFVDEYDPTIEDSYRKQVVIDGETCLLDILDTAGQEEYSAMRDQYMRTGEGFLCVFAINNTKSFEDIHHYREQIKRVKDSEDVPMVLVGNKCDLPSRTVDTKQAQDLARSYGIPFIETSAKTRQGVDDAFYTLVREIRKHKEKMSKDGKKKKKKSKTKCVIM
Sequence of KRAS G13D (P62937 whole entry): as the sequence (P62937 whole entry) above
Outline: as §2

[14] = target: KRAS G12S (Homo sapiens (Human), UniProt P01116+P62937, G12S); assay: as above; assay type: biochemical; settings: read-out: KRAS G12S FRET IC50
Sequence of KRAS G12S (P01116 other isoform, or with tags, fused parts or gaps G12S): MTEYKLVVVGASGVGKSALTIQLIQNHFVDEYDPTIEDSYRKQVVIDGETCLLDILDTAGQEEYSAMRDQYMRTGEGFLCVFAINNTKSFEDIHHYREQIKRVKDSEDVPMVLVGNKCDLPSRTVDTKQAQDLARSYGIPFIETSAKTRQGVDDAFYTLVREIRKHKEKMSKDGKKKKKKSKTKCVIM
Sequence of KRAS G12S (P62937 whole entry): as the sequence (P62937 whole entry) above
Outline: as §2

| SMILES | IC50 [1] [nM] | IC50 [2] [nM] | IC50 [3] [nM] | IC50 [4] [nM] | IC50 [5] [nM] | IC50 [6] [nM] | IC50 [7] [nM] | IC50 [8] [nM] | IC50 [9] [nM] | IC50 [10] [nM] | IC50 [11] [nM] | IC50 [12] [nM] | IC50 [13] [nM] | IC50 [14] [nM] |
| --- | --- | --- | --- | --- | --- | --- | --- | --- | --- | --- | --- | --- | --- | --- |
| CCn1c(-c2cccnc2[C@H](C)OC)c2c3cc(ccc31)-c1csc(n1)C[C@H](NC(=O)C1CC1)C(=O)N1CCC[C@H](N1)C(=O)OCC(C)(C)C2 [Compound A367] | 100 to 1000 | 10 to 100 | 100 to 1000 | 100 to 1000 | 100 to 1000 | 100 to 1000 | 1000 to 10000 | 100 to 1000 | 100 to 1000 | 100 to 1000 | 1000 to 10000 | 100 to 1000 | 1000 to 10000 | 100 to 1000 |
| CCn1c(-c2cccnc2[C@H](C)OC)c2c3cc(ccc31)-c1csc(n1)C[C@H](NC(=O)C1(F)CCC1)C(=O)N1CCC[C@H](N1)C(=O)OCC(C)(C)C2 [Compound A361] | 100 to 1000 |  | 100 to 1000 | 100 to 1000 | 100 to 1000 | 100 to 1000 | 100 to 1000 | 100 to 1000 | 100 to 1000 | 100 to 1000 | 1000 to 10000 | 100 to 1000 | 100 to 1000 | 100 to 1000 |
| CCn1c(-c2cccnc2[C@H](C)OC)c2c3cc(ccc31)-c1csc(n1)C[C@H](NC(=O)[C@H](C(C)C)N(C)C(=O)N1CCC[C@H]1c1ccccc1)C(=O)N1CCC[C@H](N1)C(=O)OCC(C)(C)C2 [Compound A599] | 1000 to 10000 |  | 1000 to 10000 | 1000 to 10000 | 1000 to 10000 | 100 to 1000 | 1000 to 10000 | 1000 to 10000 | 1000 to 10000 | 1000 to 10000 | 1000 to 10000 | 1000 to 10000 | 1000 to 10000 | 1000 to 10000 |
| CCn1c(-c2cccnc2[C@H](C)OC)c2c3cc(ccc31)-c1csc(n1)C[C@H](NC(=O)C1(F)CC1)C(=O)N1CCC[C@H](N1)C(=O)OCC(C)(C)C2 [Compound A362] | 100 to 1000 |  | 100 to 1000 | 100 to 1000 | 100 to 1000 | 100 to 1000 | 1000 to 10000 | 100 to 1000 | 100 to 1000 | 100 to 1000 | 1000 to 10000 | 100 to 1000 | 1000 to 10000 | 100 to 1000 |
| CCn1c(-c2cccnc2[C@H](C)OC)c2c3cc(ccc31)-c1csc(n1)C[C@H](NC(=O)[C@H](C(C)C)N1C[C@@H](c3ccccc3)CC1=O)C(=O)N1CCC[C@H](N1)C(=O)OCC(C)(C)C2 (single isomer, unassigned) [Compound A544] | 100 to 1000 |  | 100 to 1000 | 100 to 1000 | 100 to 1000 | 100 to 1000 | 1000 to 10000 | 1000 to 10000 | 100 to 1000 | 1000 to 10000 | 1000 to 10000 | 1000 to 10000 | 1000 to 10000 | 1000 to 10000 |
| CCn1c(-c2cc(N3CCN(C)CC3)cnc2[C@H](C)OC)c2c3cc(ccc31)-c1csc(n1)C[C@H](NC(=O)[C@H](C(C)C)N(C)C(=O)[C@H]1CCCS1(=O)=O)C(=O)N1CCC[C@H](N1)C(=O)OCC(C)(C)C2 [Compound A439] | < 10 |  | 100 to 1000 | 100 to 1000 | 100 to 1000 | 100 to 1000 | 100 to 1000 | 100 to 1000 | 100 to 1000 | 1000 to 10000 | 1000 to 10000 | 100 to 1000 | 1000 to 10000 | 1000 to 10000 |

Further lines, results first:

| IC50 [1] [nM] | IC50 [2] [nM] | IC50 [3] [nM] | IC50 [4] [nM] | IC50 [5] [nM] | IC50 [6] [nM] | IC50 [7] [nM] | IC50 [8] [nM] | IC50 [9] [nM] | IC50 [10] [nM] | IC50 [11] [nM] | IC50 [12] [nM] | IC50 [13] [nM] | IC50 [14] [nM] | SMILES |
| --- | --- | --- | --- | --- | --- | --- | --- | --- | --- | --- | --- | --- | --- | --- |
| 10 to 100 | 10 to 100 | 100 to 1000 | 100 to 1000 | 10 to 100 | 100 to 1000 | 100 to 1000 | 100 to 1000 | 100 to 1000 | 100 to 1000 | 100 to 1000 | 100 to 1000 | 100 to 1000 | 100 to 1000 | CCn1c(-c2cccnc2[C@H](C)OC)c2c3cc(ccc31)-c1csc(n1)C[C@H](NC(=O)[C@H](C(C)C)N(C)C(=O)N1CCO[C@@]3(CCN(C)C3)C1)C(=O)N1CCC[C@H](N1)C(=O)OCC(C)(C)C2 [Compound A436] |
| 100 to 1000 | 10 to 100 | 100 to 1000 | 100 to 1000 | 10 to 100 | 10 to 100 | 100 to 1000 | 10 to 100 | 100 to 1000 | 100 to 1000 | 100 to 1000 | 10 to 100 | 100 to 1000 | 100 to 1000 | CCn1c(-c2cccnc2[C@H](C)OC)c2c3cc(ccc31)-c1csc(n1)C[C@H](NC(=O)[C@H](C(C)C)N(C)C(=O)N1CCCC13CN(C)C3)C(=O)N1CCC[C@H](N1)C(=O)OCC(C)(C)C2 [Compound A545] |
| 100 to 1000 | < 10 | 100 to 1000 | 100 to 1000 | 100 to 1000 | 100 to 1000 | 100 to 1000 | 100 to 1000 | 100 to 1000 | 100 to 1000 | 1000 to 10000 | 100 to 1000 | 100 to 1000 | 100 to 1000 | CCn1c(-c2cccnc2[C@H](C)OC)c2c3cc(ccc31)-c1csc(n1)C[C@H](NC(=O)[C@H](C(C)C)N(C)C(=O)N1CC3(CCN(C)C3)C1)C(=O)N1CCC[C@H](N1)C(=O)OCC(C)(C)C2 [Compound A602] |
| 10 to 100 |  | 1000 to 10000 | 100 to 1000 | 100 to 1000 | 100 to 1000 | 1000 to 10000 | 100 to 1000 | 100 to 1000 | 1000 to 10000 | 100 to 1000 | 100 to 1000 | 100 to 1000 | 100 to 1000 | CCn1c(-c2cccnc2[C@H](C)OC)c2c3cc(ccc31)-c1csc(n1)C[C@H](NC(=O)[C@H](C(C)C)N(C)C(=O)N1CCC[C@@H]1CN(C)C)C(=O)N1CCC[C@H](N1)C(=O)OCC(C)(C)C2 [Compound A518] |
